Experimental data taken from ChEMBL document CHEMBL1201862, “PubChem BioAssay data set” (2004).
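Briefly, cells in 96-well plates were exposed to five compound concentrations for 48 h, and endpoints were estimated by linear interpolation. Abbreviation: GI50, concentration required for 50% inhibition of growth.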 Calls of active or inactive are those of the source. No stated cut-off is given here; in the data, active = GI50 up to about 1.1 µM and inactive = higher.

Columns and labels:
Experiment in all cases: NCI anticancer screen, dose series, 48 h
A498 = system: A498
EKVX = system: EKVX
K562 = system: K562
NCI-H226 = system: NCI-H226
OVCAR-3 = system: OVCAR-3
OVCAR-8 = system: OVCAR-8
RPMI-8226 = system: RPMI-8226
RXF 393 = system: RXF 393
SK-MEL-2 = system: SK-MEL-2
SK-MEL-5 = system: SK-MEL-5
SK-OV-3 = system: SK-OV-3
SNB-75 = system: SNB-75
UACC-257 = system: UACC-257
UO-31 = system: UO-31
HCT-116 = system: HCT-116
HL-60 = system: HL-60
SNB-19 = system: SNB-19
UACC-62 = system: UACC-62

Measured: GI50

COC(=O)C1=C(c2ccc(OC)c(OC)c2)OC(c2cc(OC)c(OC)c(OC)c2)C1 (centres undefined)
inactive: A498 25.6 µM | EKVX > 100 µM | K562 > 100 µM | NCI-H226 50.8 µM | OVCAR-3 38.1 µM | OVCAR-8 25.9 µM | RPMI-8226 > 100 µM | RXF 393 22.1 µM | SK-MEL-2 20.1 µM | SK-MEL-5 29.3 µM | SK-OV-3 15.3 µM | SNB-75 7.31 µM | UACC-257 > 100 µM | UO-31 > 100 µM

COC1=CC23C=CC1[C@@H](c1ccccc1)C2=C(C)C(=O)N3C(=O)NC1CCCCC1 (some centres undefined)
inactive: A498 25.6 µM | EKVX 28.7 µM | HCT-116 15 µM | HL-60 21 µM | K562 28.2 µM | NCI-H226 20.4 µM | OVCAR-3 24.2 µM | OVCAR-8 25.3 µM | RXF 393 3.45 µM | SK-MEL-2 17.5 µM | SK-MEL-5 14.9 µM | SK-OV-3 39 µM | SNB-19 31.8 µM | SNB-75 3.78 µM | UACC-257 26.6 µM | UACC-62 26.5 µM | UO-31 20.7 µM

COC(=O)C1=C(C)N(NC(N)=O)C2(N)N(NC(N)=O)C(C)=C(C(=O)OC)C12C#N (centres undefined)
inactive: A498 > 100 µM | EKVX > 100 µM | HCT-116 > 100 µM | HL-60 > 100 µM | K562 > 100 µM | NCI-H226 > 100 µM | OVCAR-3 > 100 µM | OVCAR-8 > 100 µM | RPMI-8226 > 100 µM | SK-MEL-2 > 100 µM | SK-OV-3 > 100 µM | SNB-19 > 100 µM | UACC-257 > 100 µM | UACC-62 > 100 µM | UO-31 > 100 µM

O=C1C=C(Nc2ccccc2C(=O)CC(=O)C(=O)Nc2ccc(Cl)c(Cl)c2)c2ccccc2C1=O
inactive: A498 > 100 µM | EKVX > 10 µM | HCT-116 > 10 µM | K562 12.2 µM | NCI-H226 55.5 µM | OVCAR-3 34.4 µM | OVCAR-8 26.7 µM | RPMI-8226 35.6 µM | RXF 393 71.3 µM | SK-MEL-2 30.6 µM | SK-MEL-5 7.78 µM | SK-OV-3 > 100 µM | SNB-19 37.5 µM | UACC-257 20.9 µM | UACC-62 23.6 µM | UO-31 50.7 µM

CC1=NN(C(=O)Cc2ccccc2)C(=O)/C1=C\C=C\c1ccccc1
inactive: EKVX > 100 µM | HCT-116 > 100 µM | HL-60 > 100 µM | K562 > 100 µM | NCI-H226 > 100 µM | OVCAR-3 > 100 µM | OVCAR-8 > 100 µM | RPMI-8226 > 100 µM | SK-MEL-2 > 100 µM | SK-MEL-5 > 100 µM | SNB-19 > 100 µM | SNB-75 > 100 µM | UACC-257 > 100 µM | UO-31 > 100 µM

COc1ccc(S(=O)(=O)N/N=C/c2cc(I)cc([N+](=O)[O-])c2O)cc1OC
inactive: A498 54.2 µM | EKVX 44.5 µM | HL-60 23 µM | K562 35.2 µM | NCI-H226 22.7 µM | OVCAR-3 24.5 µM | OVCAR-8 53.2 µM | RPMI-8226 24 µM | SK-MEL-2 22.5 µM | SK-MEL-5 19.8 µM | SK-OV-3 32.4 µM | SNB-19 26.3 µM | UACC-257 39 µM | UACC-62 25.8 µM | UO-31 22 µM

CC(C)(C)C1CCC2(CC1)c1[nH]c3ccccc3c1C1(CCC(C(C)(C)C)CC1)c1[nH]c3ccccc3c12 (centres undefined)
inactive: A498 > 100 µM | EKVX > 100 µM | HCT-116 41.6 µM | HL-60 > 100 µM | K562 > 100 µM | NCI-H226 > 100 µM | OVCAR-8 > 100 µM | RPMI-8226 > 100 µM | RXF 393 > 100 µM | SK-MEL-2 > 100 µM | SK-MEL-5 > 100 µM | SK-OV-3 > 100 µM | SNB-19 > 100 µM | SNB-75 70.1 µM | UACC-257 > 100 µM | UACC-62 > 100 µM | UO-31 > 100 µM

CC1(C)CCc2cc3c(cc2O1)OC(C)(C)C1c2c(ccc4c2CCC(C)(C)O4)OC31 (centres undefined)
inactive: EKVX 64.6 µM | HCT-116 > 100 µM | HL-60 51.1 µM | K562 > 100 µM | NCI-H226 > 100 µM | OVCAR-3 78.3 µM | OVCAR-8 > 100 µM | RPMI-8226 > 100 µM | SK-MEL-2 > 100 µM | SK-MEL-5 > 100 µM | SK-OV-3 > 100 µM | UACC-62 > 100 µM | UO-31 > 100 µM

CC1CC(c2ccc([N+](=O)[O-])cc2)=Nc2ccccc2S1 (centres undefined)
inactive: A498 19 µM | EKVX 23.6 µM | HCT-116 1.75 µM | HL-60 7.45 µM | K562 6.04 µM | NCI-H226 23.2 µM | OVCAR-3 11.5 µM | OVCAR-8 25.9 µM | RPMI-8226 2.3 µM | RXF 393 17.5 µM | SK-MEL-5 21.5 µM | SK-OV-3 17.1 µM | SNB-19 16.7 µM | SNB-75 37.6 µM | UACC-257 18.7 µM | UACC-62 14 µM | UO-31 11.8 µM

CCOC(=O)c1cnc2oc(-c3ccc(OC)cc3)nn2c1=O
inactive: EKVX > 100 µM | HCT-116 > 100 µM | K562 > 100 µM | NCI-H226 > 100 µM | OVCAR-3 > 100 µM | OVCAR-8 > 100 µM | RPMI-8226 > 100 µM | RXF 393 93.1 µM | SK-MEL-2 > 100 µM | SK-MEL-5 > 100 µM | SK-OV-3 > 100 µM | SNB-19 > 100 µM | SNB-75 45.3 µM | UACC-257 > 100 µM | UACC-62 71.1 µM | UO-31 > 100 µM

COc1ccc2c([nH]c3c(O)c(-c4c(C)cc5c([nH]c6c(CC=C(C)C)c(OC)ccc65)c4O)c(C)cc32)c1CC=C(C)C [BISMURRAYAFOLINE B]
inactive: A498 > 100 µM | HCT-116 > 100 µM | HL-60 > 100 µM | K562 > 100 µM | OVCAR-3 > 100 µM | OVCAR-8 > 100 µM | RPMI-8226 > 100 µM | RXF 393 > 100 µM | SK-MEL-2 > 100 µM | SK-MEL-5 > 100 µM | SK-OV-3 > 100 µM | SNB-19 > 100 µM | SNB-75 > 100 µM | UACC-257 > 100 µM | UACC-62 > 100 µM | UO-31 > 100 µM

S=c1nc2c(c[nH]1)C1c3ccccc3C2c2ccccc21
inactive: EKVX 38.5 µM | HCT-116 > 100 µM | HL-60 28.3 µM | K562 45.6 µM | NCI-H226 > 100 µM | OVCAR-3 67.5 µM | OVCAR-8 > 100 µM | RPMI-8226 35.9 µM | RXF 393 35.2 µM | SK-MEL-2 57.7 µM | SK-MEL-5 73.8 µM | SNB-19 82.4 µM | SNB-75 15.9 µM | UACC-62 59.6 µM | UO-31 39.5 µM

Cc1ccc(NS(=O)(=O)c2cc(C(C)(C)C)ccc2OCCOCCOCCOc2ccc(C(C)(C)C)cc2S(=O)(=O)Nc2ccc(C)cc2)cc1
inactive: A498 > 100 µM | EKVX > 100 µM | HCT-116 > 100 µM | HL-60 > 100 µM | K562 > 100 µM | NCI-H226 > 100 µM | OVCAR-3 > 100 µM | OVCAR-8 > 100 µM | RXF 393 > 100 µM | SK-MEL-2 > 100 µM | SK-MEL-5 > 100 µM | SK-OV-3 > 100 µM | SNB-19 > 100 µM | SNB-75 > 100 µM | UACC-257 > 100 µM | UACC-62 > 100 µM | UO-31 > 100 µM

NC(=O)N/N=C(\C(=O)C(=O)Nc1ccc(Cl)c(C(F)(F)F)c1)c1nc2ccc(C(=O)c3ccccc3)cc2nc1O
inactive: A498 36.9 µM | EKVX 27.2 µM | HCT-116 > 100 µM | K562 48.4 µM | NCI-H226 47.3 µM | OVCAR-8 88.9 µM | RPMI-8226 > 100 µM | RXF 393 66.4 µM | SK-MEL-2 > 100 µM | SK-MEL-5 44.3 µM | SK-OV-3 85.7 µM | SNB-19 > 100 µM | UACC-257 72.4 µM | UACC-62 59 µM | UO-31 31.6 µM

COC12CC(O)=C(C(C)=O)C(=O)C1(C)c1c(OC(C)=O)c(C)c(O)c(C(C)=O)c1O2 (centres undefined)
inactive: A498 17.3 µM | EKVX 31 µM | HCT-116 21 µM | HL-60 15.8 µM | K562 16.9 µM | NCI-H226 13.8 µM | OVCAR-3 14.1 µM | OVCAR-8 10.8 µM | RPMI-8226 7.71 µM | RXF 393 14.7 µM | SK-MEL-2 19 µM | SNB-19 4.98 µM | SNB-75 16 µM | UACC-257 23.6 µM | UACC-62 4.98 µM | UO-31 4.35 µM

Oc1cc(-c2c[nH]c3ccccc23)nc2cc3c(cc12)OCO3
inactive: A498 > 100 µM | EKVX > 100 µM | HCT-116 > 100 µM | HL-60 > 100 µM | K562 > 100 µM | NCI-H226 > 100 µM | OVCAR-3 8.61 µM | OVCAR-8 > 10 µM | RPMI-8226 > 100 µM | RXF 393 > 100 µM | SK-MEL-2 > 100 µM | SK-MEL-5 > 100 µM | SNB-19 > 100 µM | SNB-75 21.6 µM | UACC-257 > 100 µM | UACC-62 66.8 µM | UO-31 > 100 µM

O=C(O)CP(=S)(S)c1ccccc1 (centres undefined)
inactive: A498 > 100 µM | EKVX > 100 µM | HL-60 > 100 µM | K562 > 100 µM | NCI-H226 > 100 µM | OVCAR-8 > 100 µM | RXF 393 > 100 µM | SK-MEL-2 > 100 µM | SK-MEL-5 > 100 µM | SK-OV-3 > 100 µM | SNB-19 > 100 µM | UACC-257 > 100 µM | UACC-62 > 100 µM | UO-31 > 100 µM
